± gives the expanded uncertainty stated by the source.
Conditions: Liquid

vapor or sublimation pressure (273.15 K) [kPa]	vapor or sublimation pressure (283.15 K) [kPa]	vapor or sublimation pressure (293.15 K) [kPa]	vapor or sublimation pressure (303.15 K) [kPa]	vapor or sublimation pressure (313.15 K) [kPa]	SMILES
816.8 ± 2.2	1111.8 ± 2.2	1480.2 ± 2.4	1930.4 ± 2.5	2478 ± 2.8	FCF [difluoromethane]
587.8 ± 2.1	781.2 ± 2.1	1020.2 ± 2.2	1308.2 ± 2.3	1650.8 ± 2.5	C=CC [propene]

Reference: the NIST ThermoML archive (doi:10.1021/je0497698)
